According to patent US8030047B2, “Active truncated form of the RNA polymerase of flavivirus” (priority 2003, dated 2011):

What was measured:
[1] = target: T1, NS5PolDV (Dengue virus type 2, UniProt P14340); experiment: RNA polymerase activity of NS5PolDV on homopolymeric template poly(rC), [3H]-GTP incorporation; format: biochemical, Dengue virus (subtype 2, Strain New Guinea C); settings: for IC50: poly(rC) without primer, GTP 10 mM (so in the source), NS5PolDV 60 nM, [3H]-GTP incorporation after 15 min
T1 construct: The junction (or where the Pol domain starts) is located at amino acid 272; His-tag; made in house; host or cells: E. coli BL21[pDNAy], plasmid pQE30
Procedure: (§1) Activity was tested on three homopolymeric templates: poly(rC), poly(rU) and poly(rA). Only poly(rC) resulted to be a productive template for NS5PolDV. This was illustrated in FIG. 4 based on the following protocol: RNA polymerase activity was tested on a homopolymeric RNA template (polycytidylic acid, Amersham Biosciences) of an average length of 360 nt. A standard assay was carried out in 50 mM HEPES buffer, pH 8.0, 10 mM KCl, 5 mM MgCl2, 5 mM MnCl2, 10 mM DTT containing 1 μM template, […] primer GG, 10 μM GTP, 0.01 mCi [3H]-GTP per μl reaction mixture and the concentration of enzyme given below. Reactions were carried out at 30° C. for given time periods and stopped by spotting a sample on DEAE filter discs (Whatman) presoaked with 50 mM EDTA. Filters were washed 3×10 min with 300 mM (NH4)2SO4 buffer, pH 8.0 and 2×5 min with EtOH and air-dried. Liquid scintillation fluid was added and incorporation in counts per minute (cpm) determined by using a Wallac MicroBeta TriLux Liquid Scintillation Counter.
A: Influence of specific E. coli RNA polymerase inhibitor rifampicin on NS5PolDV and E. coli polymerase (control). NS5PolDV was tested using the conditions given above at 64-nM enzyme concentration. E. coli RNA polymerase was obtained from USBiochemicals and used in NS5PolDV standard reaction buffer at 37 nM.
In FIG. 5, the steady-state Km determination of GTP with various ligands was performed as follows: RNA polymerase activity was tested under conditions given in the description set forth above in the experiments related to FIG. 4 without the use of a primer. Initial velocities were determined over a time period of 5 min. GTP concentrations in the range of 2 to 500 μM were tested using poly(rC) at 1 μM. Template poly(rC) was tested in the range of 2 to 1000 nM with GTP fixed at 200 μM.
Initial velocities were determined on poly(rC) at 10 mM GTP and compared to corresponding values without inhibitor. […] Since these inhibition results are not identical, questions related to the putative interference of the capping domain remain when using the full-length polymerase.

[2] = target: T2, NS5PolWNV (West Nile virus, UniProt Q9Q6P4, K2808N/V2900A); experiment: RNA polymerase activity of NS5PolWNV on homopolymeric template poly(rC), [3H]-GTP incorporation; format: biochemical, West Nile virus (strain New York 99); settings: poly(rC) without primer; GTP 100 mM (so in the source); [3H]-GTP incorporation after 15 min
T2 construct: His-tag; made in house
T2 sequence (Q9Q6P4 2802-3433 K2808N/V2900A): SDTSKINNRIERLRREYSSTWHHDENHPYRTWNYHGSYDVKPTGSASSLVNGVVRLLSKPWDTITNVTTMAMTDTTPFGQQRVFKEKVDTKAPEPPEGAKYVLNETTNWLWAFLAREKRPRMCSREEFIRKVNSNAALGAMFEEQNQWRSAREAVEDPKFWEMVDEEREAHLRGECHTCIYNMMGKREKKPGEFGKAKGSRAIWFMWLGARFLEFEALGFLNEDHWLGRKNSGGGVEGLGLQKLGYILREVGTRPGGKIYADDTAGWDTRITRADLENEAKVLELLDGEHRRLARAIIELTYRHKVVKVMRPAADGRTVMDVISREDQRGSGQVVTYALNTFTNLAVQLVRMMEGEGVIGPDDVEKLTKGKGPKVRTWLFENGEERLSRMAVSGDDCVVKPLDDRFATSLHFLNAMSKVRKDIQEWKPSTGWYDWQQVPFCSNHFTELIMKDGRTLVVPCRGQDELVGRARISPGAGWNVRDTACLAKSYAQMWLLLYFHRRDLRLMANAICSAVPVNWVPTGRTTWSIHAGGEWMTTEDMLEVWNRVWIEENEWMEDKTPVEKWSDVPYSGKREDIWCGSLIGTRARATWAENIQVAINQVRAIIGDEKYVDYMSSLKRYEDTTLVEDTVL

[3] = target: T3, full-length NS5DV (Dengue virus type 2, UniProt P14340); experiment: RNA polymerase activity of full-length NS5DV on poly(rC); format: biochemical, Dengue virus (subtype 2, Strain New Guinea C); settings: inhibitor 10 mM, 10 mM GTP, read-out: Initial velocity compared to the protein without inhibitor
T3 construct: His-tag; made in house; host or cells: E. coli BL21[pDNAy], plasmid pQE30
Procedure: as §1, with “Filters were washed 3×10 min with 300 mM (NH4)2SO4 buffer, pH 8.0 and 2×5 min with EtOH and air-dried.” left out
In FIG. 5, the steady-state Km determination of GTP with various ligands was performed as follows: RNA polymerase activity was tested under conditions given in the description set forth above in the experiments related to FIG. 4 without the use of a primer. Initial velocities were determined over a time period of 5 min. […]
Initial velocities were determined on poly(rC) at 10 mM GTP and compared to corresponding values without inhibitor. […]

Compound	IC50 [1]	IC50 [2]	activity at 10000 µM [3]	activity at 10000 µM ([1]; read-out: Initial velocity compared to the protein without inhibitor)
3′-dioxolane 3′-deoxy GTP	1200 nM	58000 nM		
Nc1nc2c(ncn2[C@H]2CC[C@@H](COP(=O)(O)OP(=O)(O)OP(=O)(O)O)O2)c(=O)[nH]1 [2′,3′-dideoxy GTP]	800 nM			
CO[C@@H]1[C@H](O)[C@@H](COP(=O)(O)OP(=O)(O)OP(=O)(O)O)O[C@H]1n1cnc2c(=O)[nH]c(N)nc21 [2′-O-methyl-GTP]	5600 nM		19.3%	29.3%
Nc1nc2c(ncn2[C@@H]2O[C@H](COP(=O)(O)OP(=O)(O)OP(=O)(O)O)C[C@H]2O)c(=O)[nH]1 [3′-deoxy GTP]	20 nM			
